Experimental data from patent US4423071A, “Polyol derivatives, processes for preparing the same and their uses in therapeutics” (Sanofi, priority 1979, dated 1983).
“Also recorded” adds a separate entry of the source. Like-named read-outs stand apart in the source and are kept apart here.

Assays:
[1] = tested on: Pentylenetetrazol-induced seizure; experiment: Pentylenetetrazol-induced seizure (anticonvulsant action); format: in vivo; settings: rats, oral, ester 600 mg/kg, acid 100 mg/kg, pentylenetetrazol 125 mg/kg i.p.
Procedure: The results of trials performed with such di-n-propylacetyl derivatives in order to determine the anticonvulsant action are set out below.
The anticonvulsant action was determined using pentylenetetrazol as convulsant agent.
Batches of 10 rats were treated by oral route with a dose of 600 mg/kg of glyceryl 1-(di-n-propylacetate).
At various times after administration, the animals received an intraperitoneal dose of 125 mg/kg of pentylenetetrazol.
The percentage of protection against the convulsive seizure was then determined at each of the times in question.
A similar trial was carried out with 100 mg/kg of di-n-propylacetic acid.
This dose represents the amount of di-n-propylacetic acid required to provide a di-n-propylacetic acid blood-level equivalent to the maximum level obtained with 600 mg/kg of glyceryl 1-(di-n-propylacetate). The results obtained are given in the following Table in which are shown the percentage of protection achieved at the various times indicated: […]

[2] = set-up: species or system humans; settings: in vivo
Procedure: FIG. 8: represents blood-levels in di-n-propylacetic acid obtained from:
(a) An oral dose of 600 mg of glyceryl 1-(di-n-propylacetate) (Curve 1)
(b) An oral dose of 476 mg of glyceryl 1,2-bis-(-di-n-propylacetate) (Curve 2)
(c) An oral dose of 460 mg of sodium di-n-propylacetate (Curve 3)
FIG. 9: represents the blood-levels in di-n-propylacetic acid obtained from the oral administration of 1000 mg of glyceryl 1,2-bis-(di-n-propylacetate) every 24 hours for 4 days.
FIG. 10: represents the blood-levels in di-n-propylacetic acid obtained from:
(a) An oral dose of 1000 mg of mixtures of glyceryl 1,2-bis-(di-n-propylacetate)/glyceryl 1,3-bis-(di-n-propylacetate)
("Mixtures A and B" referred to above) (Curves 1 to 5)
(b) An oral dose of 1000 mg of sodium di-n-propylacetate (Curve 6)
FIG. 11: represents the blood-levels in di-n-propylacetic acid obtained from an oral dose of 1000 mg of 1,2-propanediol bis-(di-n-propylacetate).

[3] = tested on: rats; experiment: Acute toxicity tests in rats; settings: rat, in vivo
Description: (§1) The results of acute toxicity tests obtained with compounds of the invention are given below:

[4] = Pharmacokinetic trials with animals (species not specified), release of parent acid; format: in vivo, animal
[5] = set-up: species or system rats; settings: rat, in vivo, po, 600 mg/kg
Procedure: The first series of drawings represent blood-levels in acid of formula I above in relation to time, this acid being either released from a salt thereof or from an ester of the invention.
FIG. 1: represents blood-levels in di-n-propylacetic acid obtained from:
(a) An oral dose to rats of 600 mg/kg of either: glyceryl 1-(di-n-propylacetate) (Curve 1) or glyceryl 1,2-bis-(di-n-propylacetate) (Curve 2) or glyceryl 1,3-bis-(di-n-propylacetate) (Curve 3)
(b) An intravenous dose to rats of 200 mg/kg of sodium di-n-propylacetate (Curve 4) […] FIG. 6: represents blood-levels in di-n-propylacetic acid obtained from: […]
(b) An intravenous dose to rats of 200 mg/kg of sodium di-n-propylacetate (Curve 3) FIG. 7: represents blood-levels in di-n-propylacetic acid obtained from:
1,4-butanediol bis-(di-n-propylacetate) (Curve 1) or 2-buten-1,4-diol bis-(di-n-propylacetate) (cis isomer) (Curve 2) or 2-butyn-1,4-diol bis-(di-n-propylacetate) (Curve 3)

[6] = Acute toxicity tests in rats; settings: rat, in vivo; rats, oral route
Description: as §1

[7] = Acute toxicity tests in mice; settings: mouse, in vivo, oral route
[8] = in vivo; cited from earlier work
[9] = tested on: Chronic cobalt-induced epilepsy; experiment: Chronic cobalt-induced epilepsy; format: in vivo, rats; settings: 14 days i.p., sodium salt 2 x 200 mg/kg daily, Mixture A 400 mg/kg daily
Procedure: This trial was performed in comparison with sodium di-n-propylacetate. Batches of rats were given for 14 days either two daily intraperitoneal doses of 200 mg/kg (morning and evening) of sodium di-n-propylacetate or a daily intraperitoneal dose of 400 mg/kg (evening) of a mixture of glyceryl 1,2- and 1,3-bis-(di-n-propylacetates) ("Mixture A").

| Compound | percentage of protection against the convulsive seizure ([1]; 0.5 h) | percentage of protection against the convulsive seizure ([1]; 1 h) | percentage of protection against the convulsive seizure ([1]; 2 h) | percentage of protection against the convulsive seizure ([1]; 4 h) | percentage of protection against the convulsive seizure ([1]; 8 h) | percentage of protection against the convulsive seizure ([1]; 16 h) | slow-release of di-n-propylacetic acid in the human body ([2]; po) | release of di-n-propylacetic acid in the animal organism [4] | LD50 [6] | LD50 [7] | also measured |
| --- | --- | --- | --- | --- | --- | --- | --- | --- | --- | --- | --- |
| CCCC(CCC)C(=O)O [di-n-propylacetic acid, reference compound] | 23% | 0% | 0% | 0% | 0% | 0% |  |  |  |  |  |
| CCCC(CCC)C(=O)OCC(CO)OC(=O)C(CCC)CCC (stereo not shown) [glyceryl 1,2-bis-(di-n-propylacetate), Glyceryl 1,2-bis-(di-n-propylacetate)] |  |  |  |  |  |  | can provide the slow-release of di-n-propylacetic acid in the human body to a degree which enables therapeutic blood-levels in this acid to be attained | possess the requisite qualities to enable di-n-propylacetic acid to be released in the animal organism at a decreasing rate |  |  | LD0 ([3]; ip): > 2000 mg/kg; LD0 ([3]; po): > 5000 mg/kg |
| CCCC(CCC)C(=O)OCC(O)COC(=O)C(CCC)CCC [glyceryl 1,3-bis-(di-n-propylacetate), Glyceryl 1,3-bis-(di-n-propylacetate)] |  |  |  |  |  |  | can provide the slow-release of di-n-propylacetic acid in the human body to a degree which enables therapeutic blood-levels in this acid to be attained | possess the requisite qualities to enable di-n-propylacetic acid to be released in the animal organism at a decreasing rate |  |  | bioavailability compared with the 1,2-diester [2]: better bioavailability than that of the corresponding 1,2-diester; blood-levels in di-n-propylacetic acid compared with the 1,2-diester [2]: Very similar results |
| CCCC(CCC)C(=O)OCC(O)CO (stereo not shown) [glyceryl 1-(di-n-propylacetate), Glyceryl 1-(di-n-propylacetate)] | 29% | 56% | 41% | 43% | 35% | 22% | quite unable to induce a slow-release in di-n-propylacetic acid in the blood | possess the requisite qualities to enable di-n-propylacetic acid to be released in the animal organism at a decreasing rate | 2360 mg/kg | 3360 mg/kg | blood-levels in di-n-propylacetic acid (FIG. 1) [5]: resists the rapid elimination of this acid and maintains a high blood-level in this acid; metabolism to glycerol and di-n-propylacetic acid [2]: too rapid |
| CCCC(CCC)C(=O)OCC(COC(=O)C(CCC)CCC)OC(=O)C(CCC)CCC [glyceryl tri-(di-n-propylacetate)] |  |  |  |  |  |  |  |  |  |  | bioavailability [5]: poor bioavailability; maximum blood-levels in di-n-propylacetic acid [5]: ≤ 10 µg/mL; time until di-n-propylacetic acid appeared in the blood [5]: ≥ 150 min; value as a slow-release form of di-n-propylacetic acid [5]: of no value as a slow-release form of di-n-propylacetic acid; bioavailability ([2]; po): poor bioavailability; slow-release properties as reported in the literature [8]: a remarkably useful substance which has all the properties expected of a slow-release preparation; also recorded: can act as a slow-release form of di-n-propylacetic acid |
| CCCC(CCC)C(=O)[O-].[Na+] [sodium di-n-propylacetate, reference compound] |  |  |  |  |  |  |  |  | 1530 mg/kg | 1700 mg/kg | Number of seizures between the 7th and 14th day ([9]; controls 3.57): 1.25; Number of rats presenting at least one seizure ([9]; controls 7/7): 3/4; apparent half-life of di-n-propylacetic acid ([2]; human, po): 11 h 35 min h min |
